Values quoted from earlier work as cited in patent US12090144B2, “Photocurable hydrogel loaded with VH298-modified exosome and method of preparation and use thereof” (Chinese PLA General Hospital, priority 2022, dated 2024).

Details: background statement

Cc1ncsc1-c1ccc(CNC(=O)[C@@H]2C[C@@H](O)CN2C(=O)[C@@H](NC(=O)C2(C#N)CC2)C(C)(C)C)cc1 [VH298]
water solubility: poor water solubility
